# Results reported in patent EP1205473A1, “VESAMICOL PIPERAZINE DERIVATIVES AND DRUGS CONTAINING THE SAME” (DAIICHI RADIOISOTOPE LABORATORIES, LTD., priority 1999, dated 2001).
# Where two headings read alike, the source gives them in different places.
# What was measured:
# [1] = target: adrenaline α1 receptors; test: Receptor binding test: inhibition of tritium-labeled prazosin binding to brain homogenate; design: species or system Male Wistar rats
# [2] = target: T1, vesamicol receptors (Rattus norvegicus, UniProt Q62666); test: Receptor binding test: inhibition of I-125 labeled 5-iodobenzo vesamicol binding to brain homogenate; design: from tissue; host or cells: rat brain without cerebellum, P2 fraction; species or system Male Wistar rats; details: for IC50: Inhibitive concentration at 50% (IC50), Vesamicol receptor, Table 5, incubated three hours at 37°C, no unit printed in table (b19 gives nM for DRC140)
# T1 sequence (Q62666 1-530): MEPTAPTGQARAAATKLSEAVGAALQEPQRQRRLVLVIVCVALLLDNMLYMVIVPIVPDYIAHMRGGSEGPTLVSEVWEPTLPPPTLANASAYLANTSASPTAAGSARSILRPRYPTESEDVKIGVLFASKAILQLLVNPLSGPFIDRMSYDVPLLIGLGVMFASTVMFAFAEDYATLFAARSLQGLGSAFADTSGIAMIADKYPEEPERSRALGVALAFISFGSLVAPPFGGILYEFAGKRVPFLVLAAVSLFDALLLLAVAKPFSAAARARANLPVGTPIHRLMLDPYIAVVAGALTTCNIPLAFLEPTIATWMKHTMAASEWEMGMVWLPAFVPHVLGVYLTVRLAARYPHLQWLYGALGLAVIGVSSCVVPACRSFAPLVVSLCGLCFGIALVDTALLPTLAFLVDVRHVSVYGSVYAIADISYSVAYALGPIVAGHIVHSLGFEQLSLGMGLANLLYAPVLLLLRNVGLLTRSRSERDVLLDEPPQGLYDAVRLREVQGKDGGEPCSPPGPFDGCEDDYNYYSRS
# Method: (§1) Properties relating to binding of the vesamicol piperazine derivatives of the present invention to various receptors were examined as follows. Specifically, ligands which combine with each receptor were incubated together with homogenates prepared as follows.
# To measure affinity of vesamicol receptors, I-125 labeled 5-iodobenzo vesamicol (synthesized and labeled according to Jung et al., J. Med. Chem. 33, 2065-2068, 1990) was added to a brain homogenate prepared as follows. The vesamicol piperazine derivatives synthesized in the Examples were added at various concentrations. The mixture was then incubated for three hours at 37°C.
# (§2) B (%) =((1 0 0 × [U])^(∩))/([ I C50 (])^(∩) (+ [U])^(∩)) [formula] wherein B(%) is the proportion of specific binding in the total binding, n indicates a Hill coefficient, and U is the concentration of unbound ligand.
# Male Wistar rats were anesthetized with ether and were decapitated. The brains were immediately extracted. The cerebella were removed from the brains. 0.32 M sucrose (containing 4 mM HEPES (pH 7.4)) in an amount of five times the wet amount (weight) of this sample was added. The sample was homogenized by a potter-type homogenizer for 12 strokes while cooling with ice. 0.32 M sucrose in the same amount as the homogenate (total: 10 times the wet amount of the original sample) was added. The suspension thus obtained was centrifuged for 5 minutes at 1,000 x g. The precipitate was removed. The supernatant liquid was centrifuged at 9,200 x g for 15 minutes to separate the precipitate from the supernatant liquid. P2 fractions were suspended in a Tris-HCl buffer (pH 7.4) for binding experiments and stored at -80°C until the start of the binding experiment.
# [3] = target: T1, vesamicol receptors; test: Saturation experiment of I-125 labeled DRC140 on brain cell fractions (Scatchard plots); type: binding; design: Synaptic vesicles were extracted and separated from the brain of a rat; from tissue; host or cells: rat brain without cerebellum: P2, crude synaptic vesicles, purified synaptic vesicles; details: for Bmax / Kd: average value ± standard deviation
# [4] = target: T2, sigma receptors (Cavia porcellus, UniProt Q60492); test: Receptor binding test: inhibition of tritium-labeled (+) pentazocine binding to brain homogenate; design: species or system male guinea pig
# T2 construct: The brain was immediately extracted; The cerebellum was removed from the brain; from tissue; host or cells: guinea pig brain without cerebellum, membrane pellet
# Method: as §1
# To measure affinity to sigma receptors, tritium-labeled (+) pentazocine was added to a brain homogenate prepared as follows. The vesamicol piperazine derivatives synthesized in the Examples were added at various concentrations, and the mixture was incubated for two hours at room temperature.
# as §2
# A male guinea pig was anesthetized with ether and was decapitated. The brain was immediately extracted. The cerebellum was removed from the brain. 10 mM Tris-sucrose buffer solution (0.32 M sucrose + 10 mM Tris-HCl (pH 7.4)) was added in the amount of 10 ml/g of the tissue. The mixture was homogenized by a potter-type homogenizer for 6-10 strokes. The homogenate was centrifuged at 1,000 x g for 10 minutes at 4°C and the supernatant liquid was collected. The resulting pellets were suspended in the Tris-sucrose buffer solution at the concentration of 2 ml/g, followed by centrifugation at 1,000 x g for 10 minutes at 4°C. The supernatant liquids obtained by the two centrifugation at 1,000 x g were combined and centrifuged at 31,000 x g for 15 minutes at 4°C. The resulting pellets were suspended in a 10 mM Tris-HCl buffer solution (pH 7.4) at a concentration of 3 ml/g of tissue and incubated for 30 minutes at 25°C. After incubation, the suspension was centrifuged at 31,000 x g for 15 minutes at 4°C. The pellets obtained were suspended in a 10 mM Tris-HCl buffer solution (pH 7.4) to make a final concentration of 1.53 ml/g of tissue. The suspension was homogenized by a potter-type homogenizer for 5 strokes. The homogenate was stored at -80°C until the start of the experiment.
# [5] = target: T3, serotonin 5-HT1A receptors (Rattus norvegicus, UniProt P19327); test: Receptor binding test: inhibition of tritium-labeled 8-hydroxy-DPAT binding to brain (hippocampus) homogenate; design: species or system Male Wistar rats
# T3 construct: The hippocampi were immediately collected from the brains; from tissue; host or cells: rat hippocampus membranes
# T3 sequence (P19327 1-422): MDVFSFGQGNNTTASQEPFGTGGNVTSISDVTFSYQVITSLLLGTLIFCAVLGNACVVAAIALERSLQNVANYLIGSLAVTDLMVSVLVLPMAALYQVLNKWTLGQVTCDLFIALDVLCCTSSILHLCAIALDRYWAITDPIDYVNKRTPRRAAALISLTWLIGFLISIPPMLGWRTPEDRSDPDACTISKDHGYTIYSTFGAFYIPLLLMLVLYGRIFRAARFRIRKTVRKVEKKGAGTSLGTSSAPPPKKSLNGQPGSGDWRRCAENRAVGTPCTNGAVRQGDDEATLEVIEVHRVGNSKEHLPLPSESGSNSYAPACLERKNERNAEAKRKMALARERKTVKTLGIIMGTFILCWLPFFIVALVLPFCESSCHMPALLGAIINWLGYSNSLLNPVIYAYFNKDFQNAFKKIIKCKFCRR
# Method: as §1
# To measure affinity to serotonin 5-HT1A receptors, tritium-labeled 8-hydroxy-DPAT was added to a brain homogenate prepared as follows. The vesamicol piperazine derivatives synthesized in the Examples were added at various concentrations, and the mixture was incubated for 30 minutes at 37°C. To measure affinity to serotonin 5-HT2A receptors, tritium-labeled ketanserin was added to a brain homogenate prepared as follows. The vesamicol piperazine derivatives synthesized in the Examples were added at various concentrations, and the mixture was incubated for 15 minutes at 37°C.
# as §2
# Male Wistar rats were anesthetized with ether and were decapitated and the brains quickly extracted. The hippocampi were immediately collected from the brains. A 40-fold (vol/wt) amount of ice cooled 50 mM Tris-HCl buffer (pH 7.4) was added to the hippocampi. The mixture was homogenized using a potter-type homogenizer. The homogenate was centrifuged at 40,000 x g for 20 minutes. The supernatant liquid was removed and the resulting pellets were suspended in a 40-fold amount of Tris-HCl buffer solution. The suspension was centrifuged and the Tris buffer solution was again added to the pellets. This procedure was repeated twice. The product thus obtained was homogenized using a 40-fold amount of Tris-HCl buffer solution and incubated for 10 minutes at 37°C to remove endogenic 5-HT. The cell membrane was collected by centrifugation, washed twice, and suspended in a 10-fold amount of 50 mM Tris-HCl buffer solution (pH 7.4). The suspension thus obtained was stored at -80°C until the start of the binding experiment.
# [6] = target: T1, vesamicol receptors; test: Inhibition experiment: inhibition of binding of radioactive-iodine-labeled DRC140 to P2 fractions; design: Synaptic vesicles were extracted and separated from the brain of a rat; from tissue; host or cells: rat brain without cerebellum: P2, crude synaptic vesicles, purified synaptic vesicles
# [7] = target: T1, vesamicol receptors; test: Inhibition experiment: inhibition of binding of radioactive-iodine-labeled DRC140 to purified synaptic vesicle fractions; design: Synaptic vesicles were extracted and separated from the brain of a rat; from tissue; host or cells: rat brain without cerebellum: P2, crude synaptic vesicles, purified synaptic vesicles
# [8] = Inhibitive concentration at 50% (IC50), Sigma α-1 receptor
# [9] = inhibitive concentration at 50% (IC50), Receptor Vesamicol
# [10] = inhibitive concentration at 50% (IC50), Receptor Sigma-1
# T2 sequence (Q60492 whole entry): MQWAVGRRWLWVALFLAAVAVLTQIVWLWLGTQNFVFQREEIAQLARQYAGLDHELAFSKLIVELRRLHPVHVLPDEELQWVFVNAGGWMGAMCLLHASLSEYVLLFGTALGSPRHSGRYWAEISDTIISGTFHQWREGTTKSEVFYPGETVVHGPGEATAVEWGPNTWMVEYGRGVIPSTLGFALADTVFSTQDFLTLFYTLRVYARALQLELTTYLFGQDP
molecule,measurement,setting,value
"O[C@@H]1Cc2cccc(I)c2C[C@H]1N1CCN(c2ccccc2)CC1 [DRC140, (-)-trans-5-iodo-2-hydroxy-3-(4-phenyl-1-piperazinyl)tetralin]",IC50,"[1]; read-out: Inhibitive concentration at 50% (IC50), Adrenaline α1 receptor, Table 5, incubated 30 minutes at 37°C, unit inferred",402 nM
same,IC50,"[1]; text of disclosure, adrenaline-type nerve system receptor, read-out: IC50 value for α1-receptor",402 nM
same,greater affinity to vesamicol receptors (versus α1-receptor),[2]; ratio of IC50 α1-receptor / vesamicol receptors,190 times
same,activity to the vesamicol receptor as high as the activity to the sigma receptor,[2]; ratio vesamicol receptor versus sigma receptor,"4,000 times"
same,time to reach equilibrium,[3]; at 37°C,3 h
"Cc1ccc(C)c(N2CCN([C@@H]3Cc4c(I)cccc4C[C@H]3O)CC2)c1 (single isomer, unassigned) [DRE351, (+)-trans-5-iodo-2-hydroxy-3-[4-[2,5-dimethylphenyl]piperazinyl]tetralin]",IC50,[4]; [8],4500 nM
same,IC50,[5],664 nM
same,IC50,[2],7.11 nM
same,IC50,[6]; [9],11.4 nM
"O[C@@H]1Cc2cc(I)ccc2C[C@H]1N1CCN(c2ccccc2)CC1 (racemic) [DRG449, (±)-trans-7-iodo-2-hydroxy-3-[4-phenylpiperazinyl]tetralin]",IC50,[4]; [10],348 nM
same,IC50,[5],4770 nM
same,IC50,[6]; [9],0.55 nM
"Cc1ccccc1N1CCN([C@@H]2Cc3c(I)cccc3C[C@H]2O)CC1 (single isomer, unassigned) [DRE342, (-)-trans-5-iodo-2-hydroxy-3-[4-[2-methylphenyl]piperazinyl]tetralin]",IC50,[4]; [8],50 nM
same,IC50,[5],512 nM
same,IC50,[2],0.23 nM
same,IC50,[6]; [9],0.56 nM
"Cc1ccc(N2CCN([C@@H]3Cc4c(I)cccc4C[C@H]3O)CC2)cc1 (racemic) [DRF381, (±)-trans-5-iodo-2-hydroxy-3-[4-[4-methylphenyl]piperazinyl]tetralin]",IC50,[4]; [10],4780 nM
same,IC50,[2],13.9 nM
same,IC50,[6]; [9],14.7 nM
"Cc1ccc(C)c(N2CCN([C@@H]3Cc4c(I)cccc4C[C@H]3O)CC2)c1 (racemic) [DRE348, (±)-trans-5-iodo-2-hydroxy-3-[4-[2,5-dimethylphenyl]piperazinyl]tetralin]",IC50,[4]; [8],1500 nM
same,IC50,[4]; [10],5570 nM
same,IC50,[2],0.78 nM
same,IC50,[6]; [9],1.16 nM
"O=C(c1ccc(F)cc1)C1CCN(CCn2c(=O)[nH]c3ccccc3c2=O)CC1 [Ketanserin, reference compound]",IC50,"[6]; Table 7, P2 fractions, inhibition of radioactive-iodine-labeled DRC140 binding, Binding site names the inhibitor's own site, read-out: IC50 (nM) Average ± S.D",1110 ± 187 nM
same,inhibitive action on P2 fractions,[6]; result in words,weak inhibitive action
same,IC50,"[7]; Table 8, purified synaptic vesicle fractions, inhibition of radioactive-iodine-labeled DRC140 binding, read-out: IC50 (nM) Average ± S.D",1200 ± 43 nM
same,inhibitive action on purified synaptic vesicles,[7]; result in words,almost the same degree of weak inhibitive action
OC1Cc2cccc([125I])c2CC1N1CCN(c2ccccc2)CC1 (stereo not drawn) [I-125 labeled DRC140],Bmax,[3]; Crude synaptic vesicles,821±78.6 fmol/mg protein
same,Kd,[3]; Crude synaptic vesicles,0.34 ± 0.03 nM
same,Kd,[3]; P2 fraction,0.41 ± 0.11 nM
same,Kd,[3]; Purified synaptic vesicles,0.31 nM
same,Bmax,"[3]; P2 fraction, 3 hours at 37°C",187±58.3 fmol/mg protein
same,Bmax,[3]; Purified synaptic vesicles,1751±92.6 fmol/mg protein
same,increase in the Bmax of purified synaptic vesicles relative to P2 fractions,[3]; purified by density gradient centrifugation versus P2 fractions,approximately nine
O[C@@H]1Cc2cccc(I)c2C[C@H]1N1CCC(c2ccccc2)CC1 [5-iodobenzovesamicol],IC50,"[1]; applicant's own research, read-out: affinity to an α1-receptor (IC50)",6.74 nM
"m-(iodobenzyl)trozamicol [(+)-MIBT, reference compound]",IC50,"[1]; read-out: inhibitive concentration at 50% (IC50), Receptor Alpha-1, Table 9, high purity derivatives, unit inferred",421 nM
same,IC50,"[4]; read-out: inhibitive concentration at 50% (IC50), Receptor Sigma-1, Table 9, high purity derivatives, unit inferred",4.27 nM
same,IC50,"[5]; read-out: inhibitive concentration at 50% (IC50), Receptor 5-HT1A, Table 9, high purity derivatives, unit inferred",16600 nM
same,IC50,"[6]; read-out: inhibitive concentration at 50% (IC50), Receptor Vesamicol, Table 9, high purity derivatives (HPLC purified), I-125 labeled DRC140, P2 fractions, 3 hours at 37°C, unit inferred",0.89 nM
